The nature of data set [1]: Growth inhibition, sulforhodamine B (SRB) assay, CH1. Type of data set: cell-based. To be noted: human, CH1 ovarian carcinoma cells, CH1, 96 hr incubation, tested as salts, read-out: Cytotoxicity - IC50 CH1. The procedure: (§1) Growth inhibition was measured in three human ovarian carcinoma cell lines (A2780, CH1, and SKOV-3) and one human cervix carcinoma cell line (A431) using the sulforhodamine B (SRB) assay. Briefly, between 3000 and 6000 cells were seeded into the wells of 96-well microtiter plates and allowed to attach overnight. Compounds (acid addition and quaternary dimethiodide salts) were dissolved at 500 μM in water and immediately added to wells in quadruplicate at final concentrations of 0.05, 0.25, 1, 5 and 25 μM. Following an incubation period of 96 hr, remaining cells were fixed with ice-cold 10% w/v trichloroacetic acid (30 min) and stained with 0.4% SRB in 1% v/v acetic acid (15 min). Mean absorbance at 540 nm for each drug concentration was expressed as a percentage of the control untreated well absorbance, and IC50 values (concentration required to inhibit cell growth by 50%) were determined for each agent.
On the technique in general: Sulforhodamine B stains cellular protein and so reports cell mass.

A short description of data set [2]: Growth inhibition, sulforhodamine B (SRB) assay, A431. Type of data set: cell-based. To be noted: human, A431 cervix carcinoma cells, A431, 96 hr incubation, tested as salts, read-out: Cytotoxicity - IC50 A431. On the procedure: as §1
The target in data set [3] is telomerase (Homo sapiens, UniProt O14746). Put plainly: Modified telomeric repeat amplification protocol (TRAP) assay, cell-free. To be noted: extracts from A2780 cells, tested as salts, read-out: telIC50 (Telomerase Inhibitory Activity). The format is biochemical. On the procedure: The ability of compounds to inhibit telomerase in a cell-free assay was assessed with a modified TRAP assay using extracts from exponentially growing A2780 human ovarian carcinoma cells. The TRAP assay was performed in 2 steps: (a) telomerase-mediated extension of the forward primer (TS: 5′-AATCCGTCGAGCAGAGTT (SEQ ID NO:3), Oswel Ltd., Southampton, UK) contained in a 40 µL reaction mix comprising TRAP buffer (20 mM Tris-HCl (pH 8.3), 68 mM KCl, 1.5 mM MgCl2, 1 mM EGTA, 0.05% v/v Tween 20), 0.05 μg bovine serum albumin, 50 μM of each deoxynucleotide triphosphate, 0.1 μg TS primer, and 3 μCi of [α-^32P]dCTP (Amersham plc, UK). Protein (40 ng or 20 ng) was then incubated with the reaction mix+agent (acid addition and quaternary dimethiodide salts) at final concentrations of up to 50 μM for 20 min at 25° C. A lysis buffer (no protein) control, heat-inactivated protein control, and 50% protein (20 ng or 10 ng) control were included in each assay; and (b) while heating at 80° C. in a PCR block of a thermal cycler (Hybaid, UK) for 5 min to inactivate telomerase activity, 0.1 μg of reverse CX primer (3′-[…]-5′ (SEQ ID NO:4)) and 2 Units of Taq DNA polymerase (“red hot”, Advanced Biotechnologies) were added. A 3-step PCR was then performed: 94° C. for 30 s, 50° C. for 30 s, and 72° C. for 1 min for 31 cycles. Telomerase-extended PCR products in the presence or absence of compounds were then determined either by electrophoretic separation using 8% w/w acrylamide denaturing gels and analysis by phosphorimaging or autoradiography, or by harvesting on Whatman filters (25 mm glass microfibre) and analysis by liquid scintillation counting.
Sequence of telomerase (O14746 whole entry): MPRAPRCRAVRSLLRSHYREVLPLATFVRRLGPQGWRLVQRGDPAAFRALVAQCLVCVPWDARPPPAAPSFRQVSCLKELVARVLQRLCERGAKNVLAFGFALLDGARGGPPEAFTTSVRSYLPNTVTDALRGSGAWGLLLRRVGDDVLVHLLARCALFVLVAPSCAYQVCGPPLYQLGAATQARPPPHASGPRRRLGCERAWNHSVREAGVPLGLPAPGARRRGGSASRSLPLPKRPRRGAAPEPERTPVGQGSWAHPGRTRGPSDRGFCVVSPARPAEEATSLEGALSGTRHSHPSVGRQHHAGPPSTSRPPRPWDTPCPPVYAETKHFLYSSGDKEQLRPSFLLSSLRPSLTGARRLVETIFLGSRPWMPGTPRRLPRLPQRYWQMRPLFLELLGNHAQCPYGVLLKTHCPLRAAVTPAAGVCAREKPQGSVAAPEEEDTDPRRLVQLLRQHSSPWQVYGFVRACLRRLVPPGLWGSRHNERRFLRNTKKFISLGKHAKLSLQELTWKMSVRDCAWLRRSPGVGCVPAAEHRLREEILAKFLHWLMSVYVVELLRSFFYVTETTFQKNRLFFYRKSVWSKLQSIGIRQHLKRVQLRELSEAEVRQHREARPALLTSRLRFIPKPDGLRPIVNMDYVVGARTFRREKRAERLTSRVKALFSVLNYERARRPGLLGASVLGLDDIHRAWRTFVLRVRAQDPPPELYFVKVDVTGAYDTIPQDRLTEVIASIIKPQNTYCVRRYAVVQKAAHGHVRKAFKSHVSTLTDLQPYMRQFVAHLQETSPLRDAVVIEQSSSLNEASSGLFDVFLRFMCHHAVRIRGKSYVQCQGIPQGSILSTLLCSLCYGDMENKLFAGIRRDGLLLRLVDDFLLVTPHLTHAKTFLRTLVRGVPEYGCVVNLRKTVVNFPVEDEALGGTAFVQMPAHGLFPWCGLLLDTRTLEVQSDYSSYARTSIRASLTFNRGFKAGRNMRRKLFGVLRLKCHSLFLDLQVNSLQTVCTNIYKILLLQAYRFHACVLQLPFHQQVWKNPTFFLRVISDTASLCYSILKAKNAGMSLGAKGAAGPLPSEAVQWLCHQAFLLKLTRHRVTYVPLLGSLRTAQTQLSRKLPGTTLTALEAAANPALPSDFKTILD

Data set [4] can be described thus: Growth inhibition, sulforhodamine B (SRB) assay, A2780. To be noted: human, A2780 ovarian carcinoma cells, A2780, 96 hr incubation, tested as salts, read-out: Cytotoxicity - IC50 A2780. Type of data set: cell-based. On the procedure: as §1
Data set [5] can be described thus: Growth inhibition, sulforhodamine B (SRB) assay, SKOV-3. To be noted: human, SKOV-3 ovarian carcinoma cells, SKOV-3, 96 hr incubation, tested as salts, read-out: Cytotoxicity - IC50 SKOV-3. Type of data set: cell-based. The procedure:
as §1

`CN(C)CCCNc1c2ccc(NC(=O)CCN3CCCC3)cc2nc2cc(NC(=O)CCN3CCCC3)ccc12` [JH-ACI-65, N-{9-[3-(N,N-Dimethyl)aminopropylamino]}-3,6-bis(3-pyrrolidinopropionamido)acridine]: the IC50 at 96 h is 17 µM in data set [1], > 25 µM in data set [2], > 25 µM in data set [4] and 15.8 µM in data set [5]. Also, the IC50 in data set [3] was determined as 0.06 µM.
For the compound `CSc1cccc(Nc2c3ccc(NC(=O)CCN4CCCC4)cc3nc3cc(NC(=O)CCN4CCCC4)ccc23)c1` [JC-ACI-5, N-{9-[3′-Methylsulfanyl-phenylamino]}-3,6-bis(3-Pyrrolidinopropionamido)acridine], the IC50 at 96 h stood at 0.6 µM in data set [1], 1.3 µM in data set [2], 2.8 µM in data set [4] and 3.2 µM in data set [5]. The IC50 in data set [3] amounted to 0.1 µM.
The corresponding values for `CN(C)CCNc1c2ccc(NC(=O)CCN3CCCC3)cc2nc2cc(NC(=O)CCN3CCCC3)ccc12` [SB-ACI-11, N-[9-(N,N-Dimethylethylenediamino)]-3,6-bis(3-pyrrolidinopropionamido)acridine] are 17 µM, > 25 µM, > 25 µM, > 25 µM and 0.018 µM.
The matching figures for `O=C(CCN1CCCC1)Nc1ccc(Nc2c3ccc(NC(=O)CCN4CCCC4)cc3nc3cc(NC(=O)CCN4CCCC4)ccc23)cc1` [JC-ACI-9, N-{9-[4′-(3-Pyrrolidin-1-yl-propionylamino)-phenylamino]}-3,6-bis(3-pyrrolidinopropionamido)acridine]: 20 µM, 20 µM, > 25 µM, > 25 µM and 0.012 µM.
The corresponding values for `CC(=O)Nc1cccc(Nc2c3ccc(NC(=O)CCN4CCCC4)cc3nc3cc(NC(=O)CCN4CCCC4)ccc23)c1` [SB-ACI-14, N-{9-[(3′-Acetamido)aminophenyl]}-3,6-bis(3-pyrrolidinopropionamido)acridine] are > 25 µM, > 25 µM, > 25 µM, > 25 µM and 0.1 µM.
Regarding `COCCNc1c2ccc(NC(=O)CCN3CCCC3)cc2nc2cc(NC(=O)CCN3CCCC3)ccc12` [JH-ACI-86, N-[9-(2-Methoxy-ethylamino)]-3,6-bis(3-pyrrolidinopropionamido)acridine], the IC50 at 96 h amounted to 3.2 µM in data set [1], 10 µM in data set [2], 10 µM in data set [4] and 17.8 µM in data set [5]. Besides, the IC50 in data set [3] amounted to 0.14 µM.
Take `O=C(CCN1CCCC1)Nc1ccc2c(NC3CC3)c3ccc(NC(=O)CCN4CCCC4)cc3nc2c1` [JM-ACI-14, N-[9-(Cyclopropylamino)]-3,6-bis(3-pyrrolidinopropionamido)acridine]: the IC50 at 96 h in data set [1] was > 25 µM; in data set [2] it was > 25 µM; in data set [4], 19 µM; in data set [5], > 25 µM. Besides, the IC50 in data set [3] turned out to be 0.05 µM.
Turning to `CN1CCN(CCC(=O)Nc2ccc3[nH]c4ccc(NC(=O)CCN5CCN(C)CC5)cc4c(=O)c3c2)CC1` [JH-ACO-28, 2,7-Bis[3-(4′-N-methyl)piperizinopropionamido]-9(10H)-acridone], the IC50 at 96 h in data set [1], in data set [2], in data set [4] and in data set [5] was > 25 µM each time. The IC50 in data set [3] was found to be 0.66 µM.
For `O=C(CCN1CCCC1)Nc1ccc2c(NC3CCCCCC3)c3ccc(NC(=O)CCN4CCCC4)cc3nc2c1` [JH-ACI-88, N-[9-(Cycloheptylamino)]-3,6-bis(3-pyrrolidinopropionamido)acridine], the IC50 at 96 h worked out at 2.8 µM in data set [1], 3.2 µM in data set [2], 3.2 µM in data set [4] and 9.3 µM in data set [5]. Besides, the IC50 in data set [3] amounted to 0.21 µM.
